According to ChEMBL document CHEMBL4673247, “Mycophenolic anilides as broad specificity inosine-5'-monophosphate dehydrogenase (IMPDH) inhibitors” (Bioorg Med Chem Lett, 2020):

Experiments:
[1] = molecular target: T1, Inosine-5'-monophosphate dehydrogenase (Cryptosporidium parvum, UniProt Q8T6T2); assay: Inhibition of Cryptosporidium parvum IMPDH expressed in Escherichia coli assessed as apparent inhibition constant using NAD as substrate by fluorescence assay; settings: read-out: Ki(app)
T1 sequence (Q8T6T2 whole entry): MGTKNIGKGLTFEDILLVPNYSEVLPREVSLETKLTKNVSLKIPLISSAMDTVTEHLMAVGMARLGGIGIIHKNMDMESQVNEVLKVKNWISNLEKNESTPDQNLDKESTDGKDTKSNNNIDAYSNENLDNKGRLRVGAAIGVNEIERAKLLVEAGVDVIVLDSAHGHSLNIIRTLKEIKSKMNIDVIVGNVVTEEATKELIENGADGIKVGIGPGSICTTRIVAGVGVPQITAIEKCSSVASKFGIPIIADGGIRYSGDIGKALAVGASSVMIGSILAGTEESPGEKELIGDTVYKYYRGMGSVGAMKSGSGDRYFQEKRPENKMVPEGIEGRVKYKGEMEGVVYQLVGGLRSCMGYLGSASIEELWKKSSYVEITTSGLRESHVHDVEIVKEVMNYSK

[2] = molecular target: Inosine-5'-monophosphate dehydrogenase 2 (Homo sapiens, UniProt P12268); assay: Inhibition of human IMPDH2 expressed in Escherichia coli assessed as apparent inhibition constant using NAD as substrate by fluorescence assay; settings: read-out: Ki(app)

Ki [1] [nM] | Ki [2] [nM] | Structure (SMILES)
870 | – | COc1c(C)c2c(c(O)c1C/C=C(\C)CCC(=O)N(C)c1ccc(Cl)cc1)C(=O)OC2
46 | 350 | COc1cc(NC(=O)CC/C(C)=C/Cc2c(O)c3c(c(C)c2OC)COC3=O)ccc1Cl
1700 | – | COc1c(C)c2c(c(OC)c1C/C=C(\C)CCC(=O)Nc1ccc(Cl)c(C(F)(F)F)c1)C(=O)OC2
41 | 340 | COc1c(C)c2c(c(O)c1C/C=C(\C)CCC(=O)Nc1ccc(Cl)c(Cl)c1)C(=O)OC2
42 | 130 | COc1c(C)c2c(c(O)c1C/C=C(\C)CCC(=O)Nc1ccc(Cl)cc1)C(=O)OC2
– | 270 | COc1c(C)c2c(c(O)c1C/C=C(\C)CCC(=O)Nc1ccc(F)cc1)C(=O)OC2
110 | 350 | COc1c(C)c2c(c(O)c1C/C=C(\C)CCC(=O)Nc1ccc(C#N)cc1)C(=O)OC2
16 | 230 | COc1c(C)c2c(c(O)c1C/C=C(\C)CCC(=O)Nc1ccc(Cl)c(C(F)(F)F)c1)C(=O)OC2
60 | – | COc1c(C)c2c(c(O)c1CCC(C)CCC(=O)Nc1ccc(Cl)c(C(F)(F)F)c1)C(=O)OC2 (stereo not given)
– | 400 | COc1c(C)c2c(c(O)c1C/C=C(\C)CCC(=O)Nc1ccc(C(F)(F)F)cc1)C(=O)OC2
